Assay results reported in patent US4376785A, “Cyclopropanecarboxylates and a low fish toxic insecticide and/or acaricide containing them” (priority 1980, dated 1983).
Like-named read-outs stand apart in the source and are kept apart here.

Columns and labels:
[1] = tested on: killifish (Oryzias latipes); experiment: Toxicity to killifish (TLm48), Test example 1; type: in vivo; details: killifish, medium tolerance limit, 48 hours
Procedure: (§1) Toxicity to killifish (Oryzias latipes) was tested accordig to the test method for toxicity to fishes described in Notification B No. 2735 of the Ministry of Agriculture and Forestry (Nov. 25, 1965). Namely, each of the present compounds (1), (2), (4), (5), (6), (8), (9), (11) and reference compounds was dissolved or suspended in "Tween 80" and diluted successively with dechlorinated tap water. Ten killifish (0.2-0.3 g per fish) were released in a 10-liter glass vessel containing 5 liters of each preparation.
(§2) In order to make it clearer that the present compounds have a low toxicity to fishes as well as a high insecticidal activity, a safety coefficient to fishes was calculated from the test results of toxicity to fishes and insecticidal activity. [formula]
(§3) A detailed explanation will be given to a method of how to calculate the safety coefficient. In the case of green rice leafhoppers, calculation was based on the concentration of active ingredient in water obtained by applying a test solution containing the active ingredient in an amount corresponding to LC50 (ppm) to a flooded paddy field 5 cm deep at a rate of 100 liter/10 are, provided that all the active ingredient applied entered the water.
(§4) For example, the safety coefficient to fishes of the present compound (1) is calculated as follows: The quantity of water in a flooded paddy field 5 cm deep and 10 are in area is 50 tons; when a test solution containing the active ingredient in an amount corresponding to LC50 (ppm) is added to the paddy field at a rate of 100 liter/10 are the concentration of the active ingredient in water (hereinafter referred to as (b)) is 0.008 pp; as the toxicity to fishes [TLm48 (ppm)] (hereinafter referred to as (a)) is >2.0 ppm, said coefficient can be calculated by dividing (a) by (b). In this case, the coefficient is >250, which means that the present compound (1) has a safety higher than 250-fold.

[2] = Toxicity to killifish (TLm48), Test example 1; type: in vivo, Oryzias latipes; details: for selectivity ratio: in vivo, TLm48 divided by concentration in water at green rice leafhopper LC50, read-out: Safety coefficient to fishes (a)/(b); for LC50 at 48 h: water, killifish, medium tolerance limit, read-out: Toxicity to fishes TLm48 (a)
Procedure: as §1, §2, §3, §4

[3] = tested on: killifishes (Oryzias latipes); experiment: Simulated paddy field box test, killifish survival, Test example 6; type: in vivo; details: wettable powder, 100 ppm, 100 liter/10 are, water depth 5 cm, after 48 hours
Procedure: (§5) The wettable powder of each of the present compounds (1), (3), (5), (6) and (11) prepared in Preparation example 4 was diluted with water so that the concentration of active ingredient was 100 ppm. Soil was placed in a plastic box [5 m×5 m×2 m (deep)] to a level of 50 cm from the bottom, and rice plants about 50 cm high were transplanted at invervals of 50 cm. Water was then placed in the box so that water depth was 5 cm, and 20 killifishes (Oryzias latipes) were liberated therein. Thereafter, the above dilute solution was sprayed on the box at a rate of 100 liter/10 are. The solution fell on the rice plants as well as on the water surface.
(§6) One hour after treatment, 100 female adults of green rice leafhopper (Nephotettix cincticeps) were liberated in the box which was immediately covered with a net.

[4] = tested on: green rice leafhopper (Nephotettix cincticeps); experiment: Simulated paddy field box test, green rice leafhopper, Test example 6; type: in vivo; details: wettable powder, 100 ppm, 100 liter/10 are, after 48 hours
Procedure: as §5, §6

[5] = tested on: green rice leafhopper (Nephotettix cincticeps), R-strain; experiment: Insecticidal activity against green rice leafhopper, sprayed rice plants, Test example 1; type: in vivo; details: green rice leafhopper female adults, spray on rice plant, 26° C., 24 hours
Procedure: The emulsifiable concentrates of the present compounds and reference compounds prepared in Preparation example 1 were each formulated into test solutions having four different concentrations of active ingredient between 500 ppm and 0.5 ppm. Each test solution was sprayed on a rice plant in a 180-ml plastic cup which had elapsed one month after sowing, at a rate of 15 ml/2 cups by means of a turn table. After air-drying, the rice plate was covered with a wire-screen cage, and 15 female adults of green rice leafhopper (Nephotettix cincticeps) (a strain resistant to carbamates and organo-phosphates, hereinafter referred to as R-strain) were liberated therein. The plant was placed in an artificial climate chamber kept at 26° C. After 24 hours, the dead and alive were examined. The median lethal concentratin [LC50 (ppm)] was calculated from the mortality determined by 3 replications. […]

[6] = tested on: green rice leafhopper (Nephotettix cincticeps); experiment: Residual effect test, Text example 5; type: in vivo; details: 20 cc per pot, 24 hours
Procedure: The emulsifiable concentrate of each of the present compounds (5) and (11) prepared in Preparation example 1 was diluted with water so that the conentration of active ingredient was 400 ppm. Thereafter, 20 cc of the dilute solution was sprayed on rice plants grown in a 1/10,000 are Wagner's pot. The rice plants were air-dried and covered with a wire-screen cage, and 15 female adults of green rice leafhopper (Nephotettix cincticeps) were liberated therein. After 24 hours, the dead and alive were examined to obtain mortality. In order to examine the residual effect, the pot was then left as it was for 7 days, and the test insects were liberated in the same manner as above. After 24 hours, the mortality was examined. The experiment was carried out in a greenhouse and the number of replications was three.

[7] = tested on: housefly (Musca domestica); experiment: Housefly mortality, treated filter paper with bait, Test example 7; type: in vivo; details: 0.7 ml on filter paper, housefly female adults, 48 hours
Procedure: The emulsifiable concentrate obtained in preparation Example 1 was diluted 200 times with water (corresponding to 500 ppm of the active ingredient). On the bottom a polyethylene cup of 5.5 cm in diameter was placed a piece of filter paper of the same size, and 0.7 ml of the above dilute liquor was dropped on the filter paper. Sucrose (30 mg) was placed on the paper as bait. Thereafter, 10 housefly female adults (Musca domestica) were liberated in the cup which was then covered with a lid. After 48 hours, the dead and alive were counted to obtain mortality (4 replications).

[8] = tested on: carmine mites (Tetranychus cinnabarinus); experiment: Damage to rice plants by carmine mites, Test example 4; type: in vivo; details: 500 ppm spray, after 10 days
Procedure: The emulsifiable concentrate of each of the present compounds (3), (5), (9) and (11) prepared in Preparation example 1 was diluted with water so that the concentration of the active ingredient was 500 ppm. The dilute liquor was thoroughly sprayed on rice plants (grown in a 1/10,000 are Waner's pot) on which carmine mites (Tetranychus cinnabarinus) in all stages were made parasitic.

[9] = tested on: CSMA strain housefly (Musca domestica); experiment: Topical application to housefly adults, Test example 8; type: in vivo; details: topical to ventral thorax, 0.5 μl/adult, female adults, 24 hours
Procedure: The present compounds as below and reference compounds were each diluted with acetone into test solutions having four different concentrations of active ingredient. Each test solution was topically applied to the ventral throrax of CSMA strain housefly female adults (Musca domestica), at a rate of 0.5 μl/adult by means of a microapplicator.
The adults were then liberated in a polyethylene cup and fed with milk, sugar and water. After 24 hours, the dead and alive were observed. The median lethal dosage (LD50 μg/adult) was obtained from the morality (3 replications).

[10] = tested on: yellow fever mosquito (Aedes aegypti); type: in vivo; details: 50 mg of granules (Preparation example 6) in 100 ml water, full grown larvae, after 24 hours
Procedure: Fifty milligrams of each of the granules of the present compounds (5) and (11) obtained in Preparation example 6 was placed in a 100-ml beaker containing 100 ml of distilled water, and 30 full grown larvae of yellow fever mosquito (Aedes aegypti) were liberated therein. After 24 hours, 100% of the larvae could be killed.

Row | SMILES | Toxicity to fishes TLm48 (a) [1] [ppm] | selectivity ratio [2] | LC50 at 48 h [2] [µg/mL] | killifishes alive [3] | green rice leafhoppers alive [4] | LC50 [5] [ppm] | mortality at 400 ppm ([6]; insects liberated 7 days after treatment, read-out: Mortality, effect 7 days after treatment) [%] | mortality at 400 ppm ([6]; read-out: Mortality, effect immediately after treatment) [%] | mortality at 500 ppm [7] [%] | damage to rice plants by carmine mites [8] | LD50 [9] [μg/adult] | larvae killed [10] [%]
1 | CC1(C)[C@H](C(=O)OC(C#N)c2ccc(F)c(Oc3ccc(Br)cc3)c2)[C@H]1C(Br)C(Cl)(Cl)Br (relative stereo) [compound (1), 3-(4-Bromophenoxy)-4-fluoro-α-cyanobenzyl dl-trans-2,2-dimethyl-3-(1,2-dibromo-2,2-dichloroethyl)cyclopropanecarboxylate] | > 2.0 | > 250 | > 2 | all of the killifishes were alive | no alive green rice leafhoppers were found | 3.8 | – | – | – | – | – | –
2 | CC1(C)C(C(=O)OC(C#N)c2ccc(F)c(Oc3ccc(Cl)cc3)c2)C1C(Br)C(Cl)(Cl)Br (stereo not drawn) [compound (5), 3-(4-Chlorophenoxy)-4-fluoro-α-cyanobenzyl 2,2-dimethyl-3-(1,2-dibromo-2,2-dichloroethyl)cyclopropanecarboxylate] | – | > 100 | > 1 | all of the killifishes were alive | no alive green rice leafhoppers were found | 4.8 | 100 | 100 | 100 | the spreading of the damage could be prevented | 0.033 | 100
